These results are taken from US20260374739A1, “SMALL MOLECULAR WEIGHT CHEMICAL COMPOUND TO ANTAGONIZE EPH-EPHRIN TETRAMERIZATION AND INHIBIT BIDIRECTIONAL SIGNALING” (THE BOARD OF REGENTS OF THE UNIVERSITY OF TEXAS SYSTEM, priority 2022, published 2026).

Values joined by “and” are separate entries in the source; they are usually repeats but may differ in a detail not shown here. Equal values may be shown once.

For assay [1], the target named is T1, EphB1-EphrinB2 (EB2) (Rattus norvegicus, UniProt P09759).
T1 construct: rat EphB1-Fc residues 18-538; mouse EB2-His residues 18-232; purchased R&D Systems (EphB1-Fc); Sino Biologicals (EB2-His)
T1 sequence (P09759 18-538): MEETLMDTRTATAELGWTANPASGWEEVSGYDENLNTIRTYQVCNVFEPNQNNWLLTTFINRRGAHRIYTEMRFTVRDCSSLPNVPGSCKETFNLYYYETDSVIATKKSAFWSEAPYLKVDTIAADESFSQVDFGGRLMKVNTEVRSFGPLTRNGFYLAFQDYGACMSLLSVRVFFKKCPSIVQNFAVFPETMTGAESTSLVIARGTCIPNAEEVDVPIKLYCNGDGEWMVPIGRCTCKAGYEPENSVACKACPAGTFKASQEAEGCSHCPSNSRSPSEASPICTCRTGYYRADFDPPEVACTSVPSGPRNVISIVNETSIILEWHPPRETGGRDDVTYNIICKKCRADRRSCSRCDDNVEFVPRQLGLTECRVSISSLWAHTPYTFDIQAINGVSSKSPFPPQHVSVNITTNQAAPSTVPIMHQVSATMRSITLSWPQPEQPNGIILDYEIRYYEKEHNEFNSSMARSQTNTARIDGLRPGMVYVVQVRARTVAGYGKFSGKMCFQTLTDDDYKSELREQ
Briefly: Alpha assay EphB1-EphrinB2 (EB2) interaction. The class given is binding, mouse EB2. An excerpt:
A chemiluminescent AlphaScreen™ bead-based proximity assay suitable for HTS was developed to measure the receptor-ligand interaction formed between EphB1 and EphrinB2 (EB2) ectodomains (FIG. 3). Here, when singlet oxygen molecules generated by high energy irradiation of donor beads travel over a constrained distance to excite acceptor beads, a chemiluminescent signal is generated and detected. If an analyte interferes with the EphB1-EB2 protein-protein interaction, close proximity of the donor and acceptor beads will be disrupted resulting in diminished or lost energy transfer and reduced acceptor bead emission.
Test was conducted in the Alpha assay, to see if purified soluble Reelin (previously shown to bind EphB1 ectodomain) can interfere with EphB1-EB2 binding.
The EphB1-EB2 screen was conducted using 0.8 nM of each protein, 50 ng beads per well, and assessed at 5 μM a library of −240,000 small, drug-like chemicals. […] They were also tested in a counter screen designed to identify non-specific compounds. Here, a single-protein Alpha assay was set up using a dual-tagged EphB2-His-Fc ectodomain protein that can bind both donor and acceptor beads to bring them into proximity. If a selected compound simply absorbs the chemiluminescent signal or interferes with bead function/binding or protein folding, it was hypothesized that it would also reduce signals in the single protein assay, and would consider it a false positive.

Assay [2] deals with T2, EphB2-EphrinB2 (Mus musculus, UniProt P54763).
T2 sequence (P54763 19-543 limits assumed): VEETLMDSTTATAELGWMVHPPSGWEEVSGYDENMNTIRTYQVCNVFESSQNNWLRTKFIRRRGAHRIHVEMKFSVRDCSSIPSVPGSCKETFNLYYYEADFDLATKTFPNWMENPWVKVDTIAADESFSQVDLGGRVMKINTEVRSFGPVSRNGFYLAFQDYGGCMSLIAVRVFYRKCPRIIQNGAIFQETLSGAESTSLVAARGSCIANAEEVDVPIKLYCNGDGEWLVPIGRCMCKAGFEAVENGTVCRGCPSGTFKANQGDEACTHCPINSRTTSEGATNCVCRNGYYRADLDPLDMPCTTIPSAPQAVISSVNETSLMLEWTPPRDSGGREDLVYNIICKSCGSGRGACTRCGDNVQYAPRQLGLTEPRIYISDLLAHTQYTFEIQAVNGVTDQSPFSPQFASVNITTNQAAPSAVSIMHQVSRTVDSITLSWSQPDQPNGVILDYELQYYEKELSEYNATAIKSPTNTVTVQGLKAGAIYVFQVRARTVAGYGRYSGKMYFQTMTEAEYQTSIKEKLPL
In words: Octet, immobilized mouse EphB2 binding to mouse EphrinB2. As to conditions: for IC50: immobilized mouse EphB2, 50 nM soluble mouse EphrinB2. The text has this:
The novel compound A20-I is a halogen replacement that changes the 7-bromine in A20 for iodine and had enhanced tetramerization inhibitor activity (FIGS. 38A-38D). This is evident when comparing results of A20-I and A20 salt compounds on the interaction of immobilized mouse EphB2 ectodomain binding to soluble mouse EphrinB2 ectodomain (FIG. 38A and FIG. 38B) or soluble human EphrinA5 (FIG. 38C). […] During these interactions of immobilized EphB ectodomains binding to soluble EphrinB2, the tetramer is much more surmountable by addition of an active compound than for the reverse experiment where EphrinB2 is immobilized and EphB2 is the soluble component in the assay (see FIG. 11, FIG. 17, and FIG. 25A-FIG. 25C). It is believed that the more resistant unsurmountable tetramer formed by immobilized EphrinB2 binding to soluble EphB ectodomains provides for the most rigorous test for determining IC50 values and thus utilizing this EphrinB2-EphB2 assay for analysis of all compounds, provide uniformity in observed results. The results described herein with A20-I and using the human EphrinB2-EphB2 interaction indicates replacements can be made in the 7-bromine in A20 that lead to enhanced tetramerization inhibitor activity.

[3] abbreviates: Absolute Association IC50, mEphB2-mEphrinB2, association, absolute.
[4] abbreviates: Absolute Dissociation IC50, mEphB2-mEphrinB2, dissociation, absolute.
The mark [5] stands for this setting: Relative Association IC50, mEphB2-mEphrinB2, association, relative.
The mark [6] stands for this setting: Relative Dissociation IC50, mEphB2-mEphrinB2, dissociation, relative.

A word on the IC50: it is the midpoint of a concentration-inhibition curve. With `Oc1ccc(CN2CCOCC2)c2cccnc12` [Compound 1, 5-(morpholinomethyl)quinolin-8-ol], the “antagonism of EphB1-EB2” value in assay [1] is “some inhibitory activity though it was not apparent until higher concentrations”. Further, the IC50 was 100000 nM in assay [2] (setting [3]), 9900 nM in assay [2] (setting [4]), 10900 nM in assay [2] (setting [5]) and 900 nM in assay [2] (setting [6]).

On to `Oc1c(Cl)cc(CN2CCOCC2)c2cccnc12` [Compound 3, 7-chloro-5-(morpholinomethyl)quinolin-8-ol], for which, in assay [1], the “antagonism of EphB1-EB2” value is “may be as effective as A20 at antagonizing EphB1-EB2 and EphB2-EB2 interactions”.

In the case of `Oc1c(Cl)cc(CN2CCOCC2)c2cccnc12` [Compound 4, 4-((7-chloro-8-hydroxyquinolin-1-ium-5-yl)methyl)morpholin-4-ium chloride], the half-maximal inhibitory concentration (IC50) in assay [2] (setting [3]) was determined as 4290 nM; in assay [2] (setting [4]) it was 900 nM; in assay [2] (setting [5]), 940 nM; in assay [2] (setting [6]) it was 630 nM.

Consider `Oc1c(Br)cc(CN2CCOCC2)c2cccnc12` [Compound 6, 4-((7-bromo-8-hydroxyquinolin-1-ium-5-yl)methyl)morpholin-4-ium chloride], for which the IC50 stood at 2920 nM in assay [2] (setting [3]), 680 nM in assay [2] (setting [4]), 1040 nM in assay [2] (setting [5]) and 500 nM in assay [2] (setting [6]).

Consider `Oc1c(I)cc(CN2CCOCC2)c2cccnc12` [Compound 7, 7-iodo-5-(morpholinomethyl)quinolin-8-ol], for which the “elimination of tetramer” value in assay [2] (100 μM) is “eliminated all tetramer species”.

In the case of `Oc1c(I)cc(CN2CCOCC2)c2cccnc12` [Compound 8, 4-((8-hydroxy-7-iodoquinolin-1-ium-5-yl)methyl)morpholin-4-ium chloride], the 50% inhibitory concentration (IC50) in assay [2] (setting [3]) was 690 nM and 1300 nM; in assay [2] (setting [4]), 470 nM and 510 nM; in assay [2] (setting [5]), 300 nM and 410 nM; in assay [2] (setting [6]) it was 250 nM and 510 nM.

For `O=[N+]([O-])c1cc(CN2CCOCC2)c2cccnc2c1O` [Compound 10, 4-((8-hydroxy-7-nitroquinolin-1-ium-5-yl)methyl)morpholin-4-ium chloride], the IC50 in assay [2] (setting [3]), in assay [2] (setting [4]), in assay [2] (setting [5]) and in assay [2] (setting [6]) was under 10000 nM in each case.

For `O=S1(=O)CCN(Cc2ccc(O)c3ncccc23)CC1` [Compound 15, 4-((8-hydroxyquinolin-1-ium-5-yl)methyl)thiomorpholin-4-ium 1,1-dioxide chloride], the IC50 in assay [2] (setting [3]) came to 100000 nM; in assay [2] (setting [4]) it was 6530 nM; in assay [2] (setting [5]), 6310 nM; in assay [2] (setting [6]), 990 nM.

`Oc1ccc(CN2CCN(c3ccc(Br)cc3)CC2)c2cccnc12` [Compound 26, 5-((4-(4-bromophenyl)piperazin-1-yl)methyl)quinolin-8-ol]: in assay [1], the “antagonism of EphB1-EB2” value was “strong dose-dependent antagonist activity”.

For the compound `Oc1ccc(CN2CCN(Cc3ccc(C(F)(F)F)cc3)CC2)c2cccnc12` [Compound 48, 5-((4-(4-(trifluoromethyl)benzyl)piperazin-1-yl)methyl)quinolin-8-ol], the half-inhibitory concentration (IC50) in assay [2] (setting [3]) amounted to 100000 nM; in assay [2] (setting [4]), 8120 nM; in assay [2] (setting [5]), 12100 nM; in assay [2] (setting [6]), 2120 nM.

On to `Oc1ccc(CN2CCN(c3ccc(F)cc3F)CC2)c2cccnc12` [Compound 62, 5-((4-(2,4-difluorophenyl)piperazin-1-yl)methyl)quinolin-8-ol], for which the “antagonism of EphB1-EB2” value in assay [1] is recorded as “some inhibitory activity though it was not apparent until higher concentrations”.

As for `Oc1ccc(CN2CCCCC2)c2cccnc12` [Compound 68, 5-(piperidin-1-ylmethyl)quinolin-8-ol, reference compound], the “antagonism of EphB1-EB2” value in assay [1] is “did not exhibit any activity”.

On to `COc1ccccc1N1CCN(Cc2cc(Br)c(O)c3ncccc23)CC1` [Compound 70, 7-bromo-5-((4-(2-methoxyphenyl)piperazin-1-yl)methyl)quinolin-8-ol], for which the “antagonism of EphB1-EB2” value in assay [1] was “may be as effective as A20 at antagonizing EphB1-EB2 and EphB2-EB2 interactions”.

Regarding `Oc1c(CN2CCCCC2)cc(Cl)c2cccnc12` [Compound 76, 5-chloro-7-(piperidin-1-ylmethyl)quinolin-8-ol, reference compound], the “antagonism of EphB1-EB2” value in assay [1] is reported as “did not exhibit any activity”.

For `COCc1cc(CN2CCN(C)CC2)c(O)c2ncccc12` [Compound 77, 5-(methoxymethyl)-7-((4-methylpiperazin-1-yl)methyl)quinolin-8-ol, reference compound], the “antagonism of EphB1-EB2” value in assay [1] is “did not exhibit any activity”.
